Target: T1, 12-lipoxygenase (Sus scrofa, UniProt P16469)
T1 construct: porcine Leukocyte cytosol in buffer; from tissue; host or cells: porcine leukocyte cytosol
T1 sequence (P16469 1-663): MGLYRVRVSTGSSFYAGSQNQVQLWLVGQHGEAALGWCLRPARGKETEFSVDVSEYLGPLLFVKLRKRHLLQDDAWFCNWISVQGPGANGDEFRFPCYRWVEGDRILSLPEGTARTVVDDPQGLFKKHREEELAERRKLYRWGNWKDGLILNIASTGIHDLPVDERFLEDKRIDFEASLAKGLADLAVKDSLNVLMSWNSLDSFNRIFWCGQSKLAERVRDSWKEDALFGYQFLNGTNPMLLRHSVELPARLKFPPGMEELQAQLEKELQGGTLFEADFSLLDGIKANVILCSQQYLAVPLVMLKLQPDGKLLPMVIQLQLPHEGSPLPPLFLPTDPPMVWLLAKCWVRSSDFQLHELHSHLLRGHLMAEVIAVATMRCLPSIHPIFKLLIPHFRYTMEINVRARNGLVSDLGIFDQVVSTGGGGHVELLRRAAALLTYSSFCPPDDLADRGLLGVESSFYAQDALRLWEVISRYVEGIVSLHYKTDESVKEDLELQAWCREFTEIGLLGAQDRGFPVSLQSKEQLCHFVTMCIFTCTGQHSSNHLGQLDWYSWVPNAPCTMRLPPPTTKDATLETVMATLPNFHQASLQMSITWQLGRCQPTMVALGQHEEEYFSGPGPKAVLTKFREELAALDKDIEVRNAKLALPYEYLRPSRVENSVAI
Assay: 12-lipoxygenase inhibition in porcine leukocyte cytosol ([1-14C] arachidonic acid conversion to 12-HETE, TLC)
Format: biochemical
Details: porcine leukocyte cytosol 0.075 mg/mL, pH 8.0, 5 min preincubation, 5 μM arachidonic acid, 15 min at 37° C.
Protocol: The standard assay procedure is as follows:
Compounds of the present invention were added in 3 μL of DMSO at an appropriate concentration to porcine Leukocyte cytosol in buffer (final protein concentration of 0.075 mg/mL in 0.1M HEPES, 2 mM caCl2, 1 mM MgCl2, pH=8.0) and preincubated for 5 min at 37° C. [1-^14 C] arachidonic acid was added (final concentration of 5 μM) and the reactions were incubated for 15 min at 37° C. and terminated by the addition of HCl. Total reaction volume was 100 μL. Assays also included reduced glutathione in the assay at 25 μM or following the assay at 1 mM and/or cold carrier 12-HETE and arachidonic acid added at the end of the incubation at concentrations of 5 and 100 μM, respectively. Sample was extracted with water-saturated ethyl acetate and the extracts were spotted onto TLC plates. The plates were developed with dichloromethane/ethyl acetate/acetic acid in a ratio of 70:30:1. Under these conditions, the Rf's of 12-HETE and arachidonic acid are 0.30 and 0.45 , respectively. The percentage conversion to 12-HETE was calculated from the percentage of the total ^14 C on the TLC plate that coelutes with a standard of 12-HETE.

SMILES | IC50 [nM]
CCCCCCCCCCCCCC[C@H]1C[C@H](c2ccccc2)CC(=O)N1O (relative stereo) [1(g), trans-1-hydroxy-4-phenyl-6-tetradecyl-piperidine-2-one] | 400
O=C1CCC(CCCc2ccccc2)C(CCCc2ccccc2)N1O (centres unmarked) [1(fff), 1-Hydroxy-5,6-bis(3-phenyl-propyl)-piperidin-2-one] | 250
CCCCCCCC[C@@H]1C[C@H](c2ccccc2)CC(=O)N1O (relative stereo) [Compound 1, cis-1-hydroxy-6-octyl-4-phenylpiperidin-2-one] | 420
CCCCCCCC[C@H]1C[C@H](c2cccc3ccccc23)CC(=O)N1O (relative stereo) [1(o), trans-1-hydroxy-4-(1-naphthyl)-6-octylpiperidin-2-one] | 130
O=C1CC(CCc2ccccc2)C(Cc2ccccc2)CN1O (centres unmarked) [1(rr), 5-Benzyl-1-hydroxy-4-(2-phenylethyl)-piperidin-2-one] | 1600
CCCCCCCCCCCCC1CCC(c2ccccc2)N(O)C1=O (single isomer, unassigned) [1(ii), 3-Dodecyl-1-hydroxy-6-phenyl-piperidin-2-one] | 2000
CCCCCCCCCCCCCCCCCC[C@@H]1C[C@H](c2ccccc2)CC(=O)N1O (relative stereo) [1(h), cis-1-hydroxy-6-octadecyl-4-phenylpiperidin-2-one] | > 10000
CCCCCCCCCCCC[C@@H]1[C@H](c2ccccc2)CCC(=O)N1O (relative stereo) [1(aa), cis-6-Dodecyl-1-hydroxy-5-phenyl-piperidin-2-one] | 800
CCCCCCCCCCCCCC[C@@H]1[C@H](c2ccccc2)CCC(=O)N1O (relative stereo) [1(cc), cis-1-Hydroxy-5-phenyl-6-tetradecyl-piperidin-2-one] | 740
O=C1C[C@H](c2ccccc2)C[C@H](CCCCCCCc2ccccc2)N1O (relative stereo) [1(l), cis-1-hydroxy-4-phenyl-6-(7-pheylheptyl)-iperidin-2-one] | 500
CCCCCCCCCC[C@H]1C[C@H](c2ccccc2)CC(=O)N1O (relative stereo) [1(c), trans-1-hydroxy-6-decyl-4-phenyl-piperidin-2-one] | 700
O=C1C(Cc2cccc3ccccc23)C(c2ccccc2)CCN1O (centres unmarked) [1(ee), 1-Hydroxy-3-(1-naphthyl-methyl)-4-phenyl-piperidin-2-one] | 1000
CCCCCCCCCC[C@@H]1C[C@H](c2ccccc2)CC(=O)N1O (relative stereo) [1(b), cis-1-hydroxy-6-decyl-4-phenyl-piperidin-2-one] | 600
CCCCCCCCCC[C@@H]1C[C@H](Cc2ccccc2)CC(=O)N1O (relative stereo) [1(jj), cis-4-Benzyl-6-decyl-1-hydroxy-piperidin-2-one] | 250
CCCCCCCC[C@H]1C[C@H](c2ccccc2)CC(=O)N1O (relative stereo) [1(a), trans-1-hydroxy-6-octyl-4-phenylpiperidin-2-one] | 150
O=C1CC(CCc2ccccc2)C(c2ccccc2)CN1O (centres unmarked) [1(qq), 1-Hydroxy-5-phenyl-4-(2-phenylethyl)-piperidin-2-one] | 1000
O=C1C[C@@H](CCCc2ccccc2)C[C@H](c2ccccc2)N1O (relative stereo) [1(eee), trans-1-Hydroxy-6-phenyl-4-(3-phenylpropyl)-piperidin-2-one] | 3000
CCCCCCCCCCCCCC[C@H]1C[C@H](Cc2ccccc2)CC(=O)N1O (relative stereo) [1(oo), trans-4-Benzyl-1-hydroxy-6-tetradecyl-piperidin-2-one] | 700
O=C1CC[C@@H](c2ccccc2)[C@H](CCCc2ccccc2)N1O (relative stereo) [1(xx), trans-1-Hydroxy-5-phenyl-6-(3-phenylpropyl)-piperidin-2-one] | 1000
CCCCCCCCCCCC[C@H]1[C@H](c2ccccc2)CCC(=O)N1O (relative stereo) [1(z), trans-6-Dodecyl-1-hydroxy-5-phenyl-piperidin-2-one] | 800
O=C1C(CCCc2ccccc2)CC(c2ccccc2)CN1O (centres unmarked) [1(aaa), 1-Hydroxy-5-phenyl-3-(3-phenylpropyl)-piperidin-2-one] | 750

SMILES | IC50 [nM]
CCCCCCCCCC[C@@H]1CC[C@H](c2ccccc2)C(=O)N1O (relative stereo) [1(v), cis-6-Decyl-1-hydroxy-3-phenyl-piperidin-2-one] | 1000
CCCCCCCCCCCC[C@H]1C[C@H](Cc2ccccc2)CC(=O)N1O (relative stereo) [1(mm), trans-4-Benzyl-6-dodecyl-1-hydroxy-piperidin-2-one] | 800
CCCCCCCCCC[C@H]1C[C@H](Cc2ccccc2)CC(=O)N1O (relative stereo) [1(kk), trans-4-Benzyl-6-decyl-1-hydroxy-piperidin-2-one] | 400
CCCCCCCCCCCCCC[C@@H]1C[C@H](c2ccccc2)CC(=O)N1O (relative stereo) [1(f), cis-1-hydroxy-4-phenyl-6-tetradecyl-piperidin-2-one] | 300
CCCCCCCC[C@H]1C[C@H](c2ccc3ccccc3c2)CC(=O)N1O (relative stereo) [1(q), trans-1-hydroxy-4-(2-naphthyl)-6-octylpiperidin-2-one] | 100
CCCCCCCC[C@@H]1C[C@H](c2ccc3ccccc3c2)CC(=O)N1O (relative stereo) [1(p), cis-1-hydroxy-4-(2-naphthyl)-6-octylpiperidin-2-one] | 90
CCCCCCCCCC[C@@H]1[C@H](c2ccccc2)CCC(=O)N1O (relative stereo) [1(x), cis-6-Decyl-1-hydroxy-5-phenyl-piperidin-2-one] | 200
CCCCCCCCCCCCCCCCCC[C@H]1C[C@H](c2ccccc2)CC(=O)N1O (relative stereo) [1(i), trans-1-hydroxy-6-octadecyl-4-phenylpiperidin-2-one] | 10000
CCCCCCCCCCCC[C@@H]1C(=O)N(O)CC[C@H]1c1ccccc1 (relative stereo) [1(s), trans-1-hydroxy-4-phenyl-3-dodecylpiperidin-2-one] | 700
O=C1[C@@H](CCCc2ccccc2)[C@@H](c2ccccc2)CCN1O (relative stereo) [1(t), cis-1-hydroxy-4-phenyl-3-(3-phenylpropyl)-piperidin-2-one] | 900
O=C1[C@@H](CCCc2ccccc2)[C@H](c2ccccc2)CCN1O (relative stereo) [1(u), trans-1-hydroxy-4-phenyl-3-(3-phenylpropyl)-piperidin-2-one] | 1500
CCCCCCCCC[C@@H]1CC(=O)N(O)C[C@@H]1c1ccccc1 (relative stereo) [1(ss), cis-1-Hydroxy-4-nonyl-5-phenyl-piperidin-2-one] | 400
CCCCCCCCC[C@@H]1CC(=O)N(O)C[C@H]1c1ccccc1 (relative stereo) [1(tt), trans-1-Hydroxy-4-nonyl-5-phenyl-piperidin-2-one] | 600
CCCCCCCCCCCCCC[C@@H]1C[C@H](Cc2ccccc2)CC(=O)N1O (relative stereo) [1(nn), cis-4-Benzyl-1-hydroxy-6-tetradecyl-piperidin-2-one] | 400
O=C1CC(CCCc2ccccc2)C(c2ccccc2)CN1O (single isomer, unassigned) [1(uu), 1-Hydroxy-5-phenyl-4-(3-phenylpropyl)-piperidin-2-one] | 1700
CCCCCCCCCC[C@@H]1[C@@H](c2ccccc2)CCC(=O)N1O (relative stereo) [1(y), trans-6-Decyl-hydroxy-5-phenyl-piperidin-2-one] | 300
O=C1CC[C@@H](c2ccccc2)[C@@H](CCCc2ccccc2)N1O (relative stereo) [1(ww), cis-1-Hydroxy-5-phenyl-6-(3-phenylpropyl)-piperidin-2-one] | 900
O=C1CC(c2ccccc2)C(CCCc2ccccc2)CN1O (centres unmarked) [1(zz), 1-Hydroxy-4-phenyl-5-(3-phenylpropyl)-piperidin-2-one] | 1600
O=C1C(c2ccccc2)CC(CCCc2ccccc2)CN1O (centres unmarked) [1(yy), 1-Hydroxy-3-phenyl-5-(3-phenylpropyl)-piperidin-2-one] | 520
O=C1C[C@@H](c2ccccc2)C[C@@H](CCCc2ccccc2)N1O (relative stereo) [1(j), cis-1-hydroxy-4-phenyl-6-(3-phenylpropyl)-piperidin-2-one] | 280

Source: patent US5292884A, “Cyclic hydroxamic acids” (Biomide Investment Limited Partnership, priority 1992, dated 1994)
